We go through 65 molecules from US8158621B2, “Methods of treating or preventing autoimmune diseases with 2,4-pyrimidinediamine compounds” (Rigel Pharmaceuticals, Inc., priority 2002, dated 2012).

Structures are written as SMILES. pIC50: −log10 of the molar value. Where only a bound is given, the exact number is not on record here.

One test relates to cultured human mast cells (CHMC). Kind of test: CHMC low cell density IgE activation: tryptase assay. Format: cell-based. To be noted: Homo sapiens, Mast cell, Low Density; read-out: CHMC anti-IgE Tryptase. The method, then: Pellet CHMC cells (980 rpm, 10 min) and resuspend in pre-warmed MT. Add 65 ul of cells to each 96-well plate. Depending on the degranulation activity for each particular CHMC donor, load 1000-1500 cells/well. Mix four times followed by a 1 hr incubation at 37° C. […] Stimulate cells by adding 25 ul of 6× anti-IgE solution to the appropriate plates. Add 25 ul MT to un-stimulated control wells. Mix twice following addition of the anti-IgE. Incubate at 37° C. for 30 minutes. […] Spin plates at 1000 rpm for 10 min to pellet cells. Transfer 25 ul of supernatant to a 96-well black bottom plate and add 100 ul of freshly diluted tryptase substrate solution to each well. Incubate plates at room temperature for 30 min.
Consider `Fc1cnc(Cl)nc1Nn1cccc1` [Compound R935275], for which the pIC50 was under 5.00.

Take `OCCOc1ccc(Nc2ncc(F)c(Nc3cccc(O)c3)n2)cc1` [Compound R935155]: the pIC50 is 6.40.

Consider `Fc1cnc(Cl)nc1Nc1ccc(Cl)nc1` [Compound R920400], for which the pIC50 was under 5.00.

Staying with this test, now noted: low cell density; read-out: CHMC anti-IgE Tryptase.
For `CNC(=O)COc1cccc(Nc2ncc(F)c(Nc3cc(Cl)c(OC)c(Cl)c3)n2)c1` [Compound R927057], the pIC50 was 6.43.

For the molecule `CNC(=O)COc1cccc(Nc2ncc(F)c(Nc3ccc(OC4CCC(NC(=O)OC(C)(C)C)CC4)c(Cl)c3)n2)c1` (mixture of isomers) [Compound R945384], the pIC50 was 6.04.

Take `COC(=O)c1ccc(Cn2ncc3ccc(Nc4ncc(F)c(Nc5ccc6c(c5)NC(=O)C(C)(C)O6)n4)cc32)c(OC)c1` [Compound R935442]: the pIC50 was 6.15.

Regarding `Cc1cc(C)cc(Nc2ncc(F)c(Nc3ccc4c(c3)NC(=O)C(C)(C)O4)n2)c1` [Compound R927076], the pIC50 was 7.15.

With `CNC(=O)c1ccc(Cn2ncc3ccc(Nc4ncc(F)c(Nc5ccc6c(c5)OCCO6)n4)cc32)c(OC)c1` [Compound R935399], the pIC50 is 6.04.

With `CCN(CC)CCNC(=O)c1ccc(Nc2ncc(F)c(Nc3ccc(Cl)c(Cl)c3)n2)cc1` [Compound R950445], the pIC50 was 6.42.

For `CC(C)(C)OC(=O)NC1CCOc2ccc(Nc3nc(Nc4ccc(Cl)c(Cl)c4)ncc3F)cc21` (racemic) [Compound R950429], the pIC50 was 5.40.

`COc1c(Cl)cc(Nc2ncc(F)c(Nc3ccc4c(c3)C(=O)NC(=O)C4(C)C)n2)cc1Cl` [Compound R908955]: the pIC50 was 6.53.

As to `CC(=O)N(C)c1ccc(Nc2nc(NC3CC3)ncc2F)cc1` [Compound R945375], the pIC50 was under 5.00.

For the molecule `COc1c(Cl)cc(Nc2ncc(F)c(NC3CCC3)n2)cc1Cl` [Compound R945397], the pIC50 was 6.03.

For the molecule `COc1c(C)cc(Nc2ncc(F)c(Nc3ccc4c(c3)OCCO4)n2)cc1C` [Compound R940396], the pIC50 is 4.64.

In the case of `C[C@@H]1Oc2ccc(Nc3nc(Nc4ccc(CN)cc4)ncc3F)cc2NC1=O` [Compound R950461], the pIC50 is 6.85.

Turning to `CCOC(=O)CCn1ncc2ccc(Nc3ncc(F)c(Nc4ccc5c(c4)NC(=O)C(C)(C)O5)n3)cc21` [Compound R935434], the pIC50 was 6.51.

With `COc1c(C)cc(Nc2ncc(F)c(Nc3ccc4cnn(C)c4c3)n2)cc1Cl` [Compound R935419], the pIC50 was 6.64.

`COc1cc(Nc2nc(Nc3ccc4c(cnn4C)c3)ncc2F)ccc1F` [Compound R935410]: the pIC50 was 6.38.

In the case of `OCCCn1ncc2ccc(Nc3ncc(F)c(Nc4ccc(Cl)c(Cl)c4)n3)cc21` [Compound R935405], the pIC50 is 6.41.

Turning to `COc1ccc(Nc2nc(Nc3ccc4cnn(CCCO)c4c3)ncc2F)cc1Cl` [Compound R935407], the pIC50 was 6.41.

In the case of `COc1ccc(Nc2nc(Nc3ccc4c(cnn4C)c3)ncc2F)cc1OC` [Compound R935412], the pIC50 is 6.16.

Regarding `CNC(=O)CCn1ncc2cc(Nc3ncc(F)c(Nc4ccc(Cl)c(Cl)c4)n3)ccc21` [Compound R935390], the pIC50 is 6.26.

For `CNC(=O)CCn1ncc2ccc(Nc3ncc(F)c(Nc4ccc5c(c4)NC(=O)C(C)(C)O5)n3)cc21` [Compound R935435], the pIC50 is 6.47.

`COc1ccc(Nc2nc(Nc3cc(C)cc(C)c3)ncc2F)cc1Cl` [Compound R926991]: the pIC50 was 6.36.

Turning to `Cc1cccc(C)c1Nc1ncc(F)c(Nc2ccc(Cl)c(Cl)c2)n1` [Compound R927079], the pIC50 was 6.22.

Turning to `CNC(=O)COc1cccc(Nc2ncc(F)c(Nc3ccc4c(c3)C(NS(C)(=O)=O)CCO4)n2)c1` (racemic) [Compound R950494], the pIC50 was under 5.00.

On to `COc1ccc(Nc2nc(Nc3ccc4c(c3)CC(C(=O)N(C)C)O4)ncc2F)cc1Cl` (centres unmarked) [Compound R927052], for which the pIC50 was 6.17.

On to `Fc1cnc(NC2CC2)nc1NC1CC1` [Compound R945376], for which the pIC50 was under 5.00.

Regarding `CNC(=O)COc1cccc(Nc2ncc(F)c(Nc3cccc(OCC(=O)NC)c3)n2)c1` [Compound R945378], the pIC50 is 6.12.

For `CNC(=O)COc1cccc(Nc2ncc(F)c(Nc3ccc(OC4CCC(N)CC4)c(Cl)c3)n2)c1` (mixture of isomers) [Compound R945403], the pIC50 is 5.77.

For `CNC(=O)COc1cccc(Nc2ncc(F)c(Nc3ccc(N(C)C(C)=O)cc3)n2)c1` [Compound R945377], the pIC50 is 5.95.

Regarding `CCCCOc1ccc(Nc2ncc(F)c(Nc3ccc4c(n3)NC(=O)CO4)n2)cc1` [Compound R945408], the pIC50 is under 5.00.

With `O=C1COc2ccc(Nc3nc(Nc4ccc(Oc5ccccc5)cc4)ncc3F)nc2N1` [Compound R945409], the pIC50 was under 5.00.

`CCOC(=O)CCn1ncc2cc(Nc3ncc(F)c(Nc4ccc(Cl)c(Cl)c4)n3)ccc21` [Compound R935389]: the pIC50 is 6.06.

Turning to `CC(=O)N(C)c1ccc(Nc2ncc(F)c(Nc3ccc4c(n3)NC(=O)CO4)n2)cc1` [Compound R945420], the pIC50 is 6.36.

For the molecule `CNC(=O)CCn1ncc2ccc(Nc3ncc(F)c(Nc4ccc(Cl)c(Cl)c4)n3)cc21` [Compound R935404], the pIC50 was 6.24.

As for `NC1CCOc2ccc(Nc3ncc(F)c(Nc4ccc(Cl)c(Cl)c4)n3)cc21` (racemic) [Compound R950437], the pIC50 was 6.09.

With `COc1cc(Nc2nc(Nc3ccc(C(N)=O)cc3)ncc2F)cc(OC)c1` [Compound R950450], the pIC50 was 5.96.

Regarding `COc1cc(Nc2nc(Nc3ccc4c(c3)C(NC(=O)OC(C)(C)C)CCO4)ncc2F)cc(OC)c1` (racemic) [Compound R950432], the pIC50 was 5.62.

With `COc1cc(Nc2ncc(F)c(Nc3ccc4c(c3)C(NC(=O)OC(C)(C)C)CCO4)n2)cc(OC)c1` (racemic) [Compound R950425], the pIC50 was 5.94.

Turning to `CCOC(=O)CCn1ncc2ccc(Nc3ncc(F)c(Nc4ccc(Cl)c(Cl)c4)n3)cc21` [Compound R935403], the pIC50 is 6.09.

As to `CCN(C(C)=O)c1ccc(Nc2ncc(F)c(Nc3ccc4c(n3)NC(=O)CO4)n2)cc1` [Compound R945421], the pIC50 was 6.43.

On to `CC1(C)C(=O)NC(=O)c2cc(Nc3nc(Nc4ccc(CN)cc4)ncc3F)ccc21` [Compound R950463], for which the pIC50 was 5.61.

Consider `Cn1ncc2ccc(Nc3nc(Nc4ccc5c(c4)NC(=O)C(C)(C)O5)ncc3F)cc21` [Compound R935424], for which the pIC50 is 6.20.

As for `Cn1ncc2ccc(Nc3ncc(F)c(Nc4ccc(F)c(F)c4)n3)cc21` [Compound R935401], the pIC50 is 6.29.

Turning to `Cn1ncc2ccc(Nc3nc(Cl)ncc3F)cc21` [Compound R935394], the pIC50 was under 5.00.

`COc1ccc(Nc2nc(Nc3ccc4cnn(C)c4c3)ncc2F)cc1Cl` [Compound R935402]: the pIC50 is 6.67.

Consider `Fc1cnc(NC2CCC2)nc1NC1CCC1` [Compound R945380], for which the pIC50 was under 5.00.

For `NC(=O)c1ccc(Nc2ncc(F)c(Nc3ccc4c(c3)NC(=O)C(F)(F)O4)n2)cc1` [Compound R950455], the pIC50 was 6.66.

As for `O=C(COc1cccc(Nc2ncc(F)c(NC3CCC3)n2)c1)NC1CCC1` [Compound R945396], the pIC50 was 5.65.

As to `COc1cc(Nc2nc(Nc3ccc4c(c3)C(N)CCO4)ncc2F)cc(OC)c1` (racemic) [Compound R950436], the pIC50 is 5.26.

Take `NC(=O)c1ccc(Nc2ncc(F)c(Nc3ccc(Cl)c(Cl)c3)n2)cc1` [Compound R950451]: the pIC50 is 7.15.

With `CNC(=O)COc1cccc(Nc2ncc(F)c(Nc3ccc4c(c3)C(NS(=O)(=O)c3ccc(C)cc3)CCO4)n2)c1` (racemic) [Compound R950493], the pIC50 is 5.72.

Regarding `CC(C)(C)OC(=O)NCc1ccc(Nc2ncc(F)c(Nc3ccc4c(c3)C(=O)NC(=O)C4(C)C)n2)cc1` [Compound R950462], the pIC50 was under 5.00.

As for `COc1c(C)cc(Nc2ncc(F)c(Nc3ccc4c(n3)NC(=O)C(C)(C)O4)n2)cc1Cl` [Compound R940391], the pIC50 is 6.58.

`COc1ccc(Nc2nc(Nc3ccc4[nH]ncc4c3)ncc2F)cc1OC` [Compound R935441]: the pIC50 is 6.23.

Consider `COc1ccc(Nc2ncc(F)c(Nc3ccc4c(c3)C(NC(=O)OC(C)(C)C)CCO4)n2)cc1Cl` (racemic) [Compound R950427], for which the pIC50 is 5.72.

As to `CCOC(=O)CCn1ncc2ccc(Nc3ncc(F)c(Nc4ccc(OC)c(Cl)c4)n3)cc21` [Compound R935406], the pIC50 is 5.93.

Take `Cc1cc(Nc2ncc(F)c(Nc3ccc4c(n3)NC(=O)C(C)(C)O4)n2)cc(Cl)c1O` [Compound R940394]: the pIC50 is 4.78.

For the molecule `COc1ccc(Nc2ncc(F)c(Nc3ccc4c(c3)NC(=O)C(C)(C)O4)n2)c(OC)n1` [Compound R927068], the pIC50 is 6.05.

As for `COc1cc(Nc2ncc(F)c(Nc3ccc4c(c3)NC(=O)C(C)(C)O4)n2)cc(OC)c1` [Compound R927073], the pIC50 is 7.18.

Regarding `NCc1ccc(Nc2ncc(F)c(Nc3ccc4c(c3)NC(=O)C(F)(F)O4)n2)cc1` [Compound R950465], the pIC50 was 6.45.

As to `CNC(=O)COc1cccc(Nc2ncc(F)c(Nc3cc(C)c(OC)c(Cl)c3)n2)c1` [Compound R926974], the pIC50 is 6.53.

Turning to `CN(C)C(=O)C1Cc2cc(Nc3ncc(F)c(Nc4ccc(OC(F)(F)F)c(Cl)c4)n3)ccc2O1` (centres unmarked) [Compound R927053], the pIC50 was 6.17.

On to `CNC(=O)CCn1ncc2ccc(Nc3ncc(F)c(Nc4ccc(OC)c(Cl)c4)n3)cc21` [Compound R935409], for which the pIC50 is 5.93.
